Experimental data taken from patent US12280138B2, “Dedifferentiated cell extract of Bletilla and method for whitening, anti-oxidation and anti-wrinkling applying the same, and cosmetic comprising the same” (CHLITINA INTELLIGENCE LIMITED, priority 2021, dated 2025).

Tests used:
melanosis = conditions: 1% kojic acid applied to male and female subjects; cited from earlier work
zebrafish embryos = test: Whitening efficacy in zebrafish experiment (melanin plaques); format: in vivo; conditions: 10 mM (about 1421 μg/ml)
Procedure: The wild-type zebrafish were stimulated to spawn, and the eggs spawned within one hour were collected. Upon 9 hours after fertilization, the embryos were screened by microscope to confirm the developmental state after fertilization. Each group had 12 fish embryos. The E3 culture medium, which was the zebrafish embryo culture medium, served as the control group. The positive control group was added with kojic acid (Kojic acid). Each experimental group was added with Example 1, Comparative example 1 and Comparative example 2, respectively. As zebrafish embryos produced melanin within 24 hours after fertilization, the treatment finished before the production of melanin, and the melanin production state in the hatched fish was observed upon 72 hours after fertilization. First, the fish was anesthetized and placed on a flat surface. The photo was taken from a top view, and the melanin plaques were analyze by the software of ImageJ. The intensity of the melanin plaque in the control group served as the standard, that is, the melanin amount thereof was 100%. The relative melanin amounts of the rest of the groups were calculated.

O=c1cc(CO)occ1O [kojic acid]
melanosis (melanosis): significantly inhibited
Inhibition rate of melanin production (zebrafish embryos): about 55%
